Earlier results on one compound are cited in patent US7202233B2, “Alprazolam inclusion complexes and pharmaceutical compositions thereof” (Farmarc Nederland BV, priority 2000, dated 2007).

The structures appear in SMILES notation.

The conditions of data set [1]: tablet formulation, conventional orogastric administration.
The conditions of data set [2]: above pH 6; FIG. 1 (Cho et al. 1983).
For data set [3] the following is noted: 20% solution of 2-hydroxypropyl-beta-cyclodextrin.
The conditions of data set [4]: sublingual use of commercially available oral tablet dosage forms.

With `Cc1nnc2n1-c1ccc(Cl)cc1C(c1ccccc1)=NC2` [alprazolam, 8-chloro-1-methyl-6-phenyl-4H-[1,2,4]triazolo[4,3a][1,4]benzodiazepine], the “time of maximum plasma levels post-dose” value in data set [1] was 0.7 to 1.8 h. The “presence of ring-open form as a function of pH” value in data set [2] is given as “no ring-open alprazolam above pH 6”. Moreover, in data set [3], the solubility enhancement is 16 fold. In addition, the “speed of onset, sublingual versus conventional orogastric administration” value in data set [4] is listed as “no significant benefit”.
